Series [1] in a line: PAMPA (parallel artificial membrane permeability assay). It counts as in vitro ADME. The following applies: PAMPA. The method in brief: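 Artificial membrane was 10% (w/v) egg lecithin plus 0.5% (w/v) cholesterol in dodecane on a PVDF filter. A 10 mM DMSO stock was added at 0.5% (v/v) to donor buffer (50 mM MOPSO, pH 6.5, 5.0% glycocholic acid). After 18 h at 37 °C, LC/MS or LC/UV gave donor and acceptor levels for Pe.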
(In general: The PAMPA barrier holds no transporters, so it reflects passive diffusion.)

Series [2] can be described thus: Metabolic stability in human hepatic microsome. It counts as in vitro ADME. The note with it: microsomes.
[3] abbreviates: membrane permeation rate (Pe), 50 mM MOPSO buffer pH 6.5 with 5.0% glycocholic acid, 37° C., 18 hours, read-out: iPAMPA Pe.
Setting [4] is: pH 7.4, human hepatic microsome, NADPH(+), read-out: CL NADPH(+).

Where two headings read alike, the source gives them in different places. Starred links: 1 amine or outer side, 2 acyl side, 3 side chain; linkers in the order of their positions; H or OH if unused. Positions of bridges follow the written chain, without caps; N, C: chain ends. Non-standard residues stand in square brackets, D forms with d. Residues, ends and D or L forms follow the SMILES beside them. *: point of attachment. hhPhe = N[C@@H](CCCc1ccccc1)C(=O)O; NMeF = CN[C@@H](Cc1ccccc1)C(=O)O; NMeI = CC[C@H](C)[C@H](NC)C(=O)O; hPhe = N[C@@H](CCc1ccccc1)C(=O)O; NMeβAla = CN(CCC(=O)[*:2])[*:1]; NMeL = CN[C@@H](CC(C)C)C(=O)O; NMeV = CN[C@H](C(=O)O)C(C)C; NMeA = CN[C@@H](C)C(=O)O; Piperidide = C1CCN(*)CC1; dNMeA = CN[C@H](C)C(=O)O; β3hA = C[C@H](N)CC(=O)O; Sar = CNCC(=O)O; tBu = CC(C)(C)*

`CC(C)C[C@H]1C(=O)N(C)[C@@H](C(C)C)C(=O)N(C)[C@@H](C)C(=O)N[C@@H](CCc2ccccc2)C(=O)N(C)[C@@H](C)C(=O)N[C@H](C(=O)N2CCCCC2)CC(=O)N(C)[C@@H](C)C(=O)N[C@@H]([C@@H](C)O)C(=O)N(C)[C@@H](C)C(=O)N[C@@H](C)C(=O)N(C)[C@@H](Cc2ccccc2)C(=O)N1C` [DP-734] ([NMeA]T[NMeA]A[NMeF][NMeL][NMeV][NMeA][hPhe][NMeA]D-Piperidide; lactam N-11): in series [1] (setting [3]), the Papp at 18 hours, 50 µM was 16 ×10⁻⁶ cm/s. For the same compound, the microsomal CLint at 1 uM in series [2] (setting [4]) was determined as 84 µL/min/mg.
In the same order, the values of `CC(C)C[C@H]1C(=O)N(C)[C@@H](C(C)C)C(=O)N(C)[C@@H](C)C(=O)N[C@@H](CCCc2ccccc2)C(=O)N(C)[C@@H](C)C(=O)N[C@H](C(=O)N2CCCCC2)CC(=O)N(C)[C@@H](C)C(=O)N[C@@H]([C@@H](C)O)C(=O)N(C)[C@@H](C)C(=O)N[C@@H](C)C(=O)N(C)[C@@H](Cc2ccccc2)C(=O)N1C` [DP-735] ([NMeA]T[NMeA]A[NMeF][NMeL][NMeV][NMeA][hhPhe][NMeA]D-Piperidide; lactam N-11) are 21 ×10⁻⁶ cm/s and 88 µL/min/mg.
The matching figures for `CC(C)C[C@@H]1NC(=O)[C@H](C(C)C)N(C)C(=O)[C@H](CCc2ccccc2)NC(=O)CN(C)C(=O)[C@H]([C@@H](C)O)NC(=O)[C@H](C)N(C)C(=O)[C@H](CC(C)C)N(C)C(=O)[C@@H](C(C)C)NC(=O)C[C@@H](C(=O)N2CCCCC2)NC(=O)[C@H](C)NC(=O)[C@H](CC(C)C)N(C)C1=O` [DP-736] ([dV][NMeL][NMeA]T[Sar][hPhe][NMeV]L[NMeL]AD-Piperidide; lactam N-11): 27 ×10⁻⁶ cm/s and 47 µL/min/mg.
In the same order, the values of `CC(C)C[C@@H]1NC(=O)[C@H](C(C)C)N(C)C(=O)[C@H](CCCc2ccccc2)NC(=O)CN(C)C(=O)[C@H]([C@@H](C)O)NC(=O)[C@H](C)N(C)C(=O)[C@H](CC(C)C)N(C)C(=O)[C@@H](C(C)C)NC(=O)C[C@@H](C(=O)N2CCCCC2)NC(=O)[C@H](C)NC(=O)[C@H](CC(C)C)N(C)C1=O` [DP-737] ([dV][NMeL][NMeA]T[Sar][hhPhe][NMeV]L[NMeL]AD-Piperidide; lactam N-11) are 30 ×10⁻⁶ cm/s and 45 µL/min/mg.
Regarding `CC(C)C[C@@H]1NC(=O)[C@H](CC(C)C)N(C)C(=O)C[C@@H](C(=O)N2CCCCC2)NC(=O)[C@H](C)N(C)C(=O)[C@H](CC(C)C)N(C)C(=O)[C@H]([C@@H](C)O)NC(=O)[C@H](Cc2ccccc2)N(C)C1=O` [DP-738] ([NMeL]L[NMeF]T[NMeL][NMeA]D-Piperidide; lactam N-7), the Papp at 18 hours, 50 µM in series [1] (setting [3]) was 22 ×10⁻⁶ cm/s. Further, in series [2] (setting [4]), the microsomal CLint at 1 uM is 221 µL/min/mg.
As to `CC(C)C[C@H]1C(=O)N[C@H](C(=O)N2CCCCC2)CC(=O)N[C@H](C)C(=O)N(C)[C@@H](C)C(=O)N(C)[C@@H](Cc2ccccc2)C(=O)N(C)[C@@H](CC(C)C)C(=O)N[C@@H]([C@@H](C)O)C(=O)N1C` [DP-739] ([dA][NMeA][NMeF][NMeL]T[NMeL]D-Piperidide; lactam N-7), the Papp at 18 hours, 50 µM in series [1] (setting [3]) was 18 ×10⁻⁶ cm/s. Also, in series [2] (setting [4]), the microsomal CLint at 1 uM worked out at 164 µL/min/mg.
In the same order, the values of `CC(C)C[C@H]1C(=O)N[C@H](C(=O)N2CCCCC2)CC(=O)N[C@H](C)C(=O)N(C)[C@@H](CC(C)C)C(=O)N(C)[C@@H](Cc2ccccc2)C(=O)N(C)[C@@H](CC(C)C)C(=O)N[C@@H]([C@@H](C)O)C(=O)N1C` [DP-740] ([dA][NMeL][NMeF][NMeL]T[NMeL]D-Piperidide; lactam N-7) are 31 ×10⁻⁶ cm/s and 483 µL/min/mg.
The matching figures for `CC(C)C[C@@H]1NC(=O)[C@H](CC(C)C)N(C)C(=O)[C@H](C)N(C)C(=O)[C@H]([C@@H](C)O)NC(=O)[C@H](Cc2ccccc2)N(C)C(=O)[C@@H](C)NC(=O)C[C@@H](C(=O)N2CCCCC2)NC1=O` [DP-741] ([dA][NMeF]T[NMeA][NMeL]LD-Piperidide; lactam N-7): 10 ×10⁻⁶ cm/s and 169 µL/min/mg.
The matching figures for `CC(C)C[C@@H]1NC(=O)[C@H]([C@@H](C)O)NC(=O)[C@H](CC(C)C)N(C)C(=O)[C@H](Cc2ccccc2)N(C)C(=O)CN(C)C(=O)[C@@H](C)NC(=O)C[C@@H](C(=O)N2CCCCC2)NC1=O` [DP-742] ([dA][Sar][NMeF][NMeL]TLD-Piperidide; lactam N-7): 15 ×10⁻⁶ cm/s and 175 µL/min/mg.
With `CC(C)C[C@H]1C(=O)N[C@@H](COC(C)(C)C)C(=O)N(C)[C@@H](Cc2ccccc2)C(=O)N(C)[C@@H](CC(C)C)C(=O)N[C@H](C(=O)N2CCCCC2)CC(=O)N(C)CC(=O)N[C@@H]([C@@H](C)O)C(=O)N1C` [DP-743] ([Sar]T[NMeL]S(tBu)[NMeF][NMeL]D-Piperidide; lactam N-7), in series [1] (setting [3]), the Papp at 18 hours, 50 µM came to 16 ×10⁻⁶ cm/s. Moreover, the microsomal CLint at 1 uM in series [2] (setting [4]) stood at 126 µL/min/mg.
The matching figures for `CC(C)C[C@@H]1NC(=O)[C@H](CC(C)C)N(C)C(=O)CN(C)C(=O)[C@H]([C@@H](C)O)NC(=O)[C@H](C)N(C)C(=O)C[C@@H](C(=O)N2CCCCC2)NC(=O)[C@H](Cc2ccccc2)N(C)C1=O` [DP-744] ([NMeA]T[Sar][NMeL]L[NMeF]D-Piperidide; lactam N-7): 12 ×10⁻⁶ cm/s and 61 µL/min/mg.
With `CC(C)C[C@@H]1NC(=O)C[C@@H](C(=O)N2CCCCC2)NC(=O)[C@H]([C@@H](C)O)NC(=O)[C@H](CC(C)C)N(C)C(=O)CN(C)C(=O)[C@H](Cc2ccccc2)N(C)C(=O)[C@H](C)N(C)C1=O` [DP-745] (L[NMeA][NMeF][Sar][NMeL]TD-Piperidide; lactam N-7), the Papp at 18 hours, 50 µM in series [1] (setting [3]) amounted to 17 ×10⁻⁶ cm/s. Also, the microsomal CLint at 1 uM in series [2] (setting [4]) amounted to 232 µL/min/mg.
The matching figures for `CC(C)C[C@H]1C(=O)N[C@@H](COC(C)(C)C)C(=O)N(C)[C@@H](Cc2ccccc2)C(=O)N(C)[C@@H](CC(C)C)C(=O)N[C@H](C(=O)N2CCCCC2)CC(=O)N(C)CCC(=O)N[C@@H]([C@@H](C)O)C(=O)N1C` [DP-746] ([NMeβAla]T[NMeL]S(tBu)[NMeF][NMeL]D-Piperidide; lactam N-7): 47 ×10⁻⁶ cm/s and 318 µL/min/mg.
In the same order, the values of `CC(C)C[C@H]1C(=O)N[C@@H]([C@@H](C)O)C(=O)N[C@@H](COC(C)(C)C)C(=O)N[C@H](C(=O)N2CCCCC2)CC(=O)N(C)CCC(=O)N(C)[C@@H](Cc2ccccc2)C(=O)N(C)[C@@H](CC(C)C)C(=O)N1C` [DP-747] ([NMeβAla][NMeF][NMeL][NMeL]TS(tBu)D-Piperidide; lactam N-7) are 20 ×10⁻⁶ cm/s and 248 µL/min/mg.
In the same order, the values of `CC(C)C[C@H]1C(=O)N[C@@H](COC(C)(C)C)C(=O)N[C@@H]([C@@H](C)O)C(=O)N(C)[C@@H](Cc2ccccc2)C(=O)N(C)[C@@H](CC(C)C)C(=O)N[C@H](C(=O)N2CCCCC2)CC(=O)N[C@@H](C(C)C)C(=O)N1C` [DP-748] (V[NMeL]S(tBu)T[NMeF][NMeL]D-Piperidide; lactam N-7) are 45 ×10⁻⁶ cm/s and 341 µL/min/mg.
As for `CC(C)C[C@H]1C(=O)N[C@@H]([C@@H](C)O)C(=O)N(C)[C@@H](Cc2ccccc2)C(=O)N[C@@H](COC(C)(C)C)C(=O)N[C@H](C(=O)N2CCCCC2)CC(=O)N[C@@H](C(C)C)C(=O)N(C)CC(=O)N1C` [DP-749] (V[Sar][NMeL]T[NMeF]S(tBu)D-Piperidide; lactam N-7), the Papp at 18 hours, 50 µM in series [1] (setting [3]) was determined as 17 ×10⁻⁶ cm/s. Further, the microsomal CLint at 1 uM in series [2] (setting [4]) was 56 µL/min/mg.
The matching figures for `CC(C)C[C@H]1C(=O)N[C@H](C(=O)N2CCCCC2)CC(=O)N(C)CCC(=O)N[C@@H]([C@@H](C)O)C(=O)N(C)CC(=O)N[C@@H](COC(C)(C)C)C(=O)N(C)[C@@H](Cc2ccccc2)C(=O)N1C` [DP-750] ([NMeβAla]T[Sar]S(tBu)[NMeF][NMeL]D-Piperidide; lactam N-7): 13 ×10⁻⁶ cm/s and 49 µL/min/mg.
The matching figures for `CC(C)C[C@@H]1NC(=O)[C@H](Cc2ccccc2)N(C)C(=O)[C@H](Cc2ccccc2)N(C)C(=O)[C@H]([C@@H](C)O)NC(=O)CN(C)C(=O)[C@H](C)NC(=O)C[C@@H](C(=O)N2CCCCC2)NC1=O` [DP-751] (A[Sar]T[NMeF][NMeF]LD-Piperidide; lactam N-7): 18 ×10⁻⁶ cm/s and 156 µL/min/mg.
Regarding `CC(C)C[C@@H]1NC(=O)[C@H]([C@@H](C)O)NC(=O)[C@@H]2CCCN2C(=O)[C@H](Cc2ccccc2)NC(=O)[C@H](COC(C)(C)C)NC(=O)[C@H](CC(C)C)N(C)C(=O)[C@H](Cc2ccccc2)NC(=O)[C@@H](C)N(C)C(=O)C[C@H](C)NC(=O)CNC(=O)[C@H](C)N(C)C(=O)[C@H](C)N(C)C1=O` [DP-752] (cyclo(F[NMeL]S(tBu)FPTL[NMeA][NMeA]G[β3hA][dNMeA])), the Papp at 18 hours, 50 µM in series [1] (pH 6.5) amounted to 6.2 ×10⁻⁶ cm/s. In series [2] (human, pH 7.4, CL NADPH(+)), this compound registered a microsomal CLint at 1 uM of 33 µL/min/mg.
As to `CC(C)C[C@@H]1NC(=O)[C@H](C)N(C)C(=O)[C@H]([C@@H](C)O)NC(=O)[C@H](Cc2ccccc2)N(C)C(=O)CNC(=O)[C@H](C(C)C)N(C)C(=O)[C@H](C(C)C)NC(=O)[C@H](C)N(C)C(=O)[C@H](Cc2ccccc2)NC(=O)[C@H](C)N(C)C(=O)[C@@H](C)N(C)C(=O)C[C@H](C)NC1=O` [DP-753] (cyclo(F[NMeA]V[NMeV]G[NMeF]T[NMeA]L[β3hA][dNMeA][NMeA])), the Papp at 18 hours, 50 µM in series [1] (setting [3]) came to 10 ×10⁻⁶ cm/s. Also, in series [2] (setting [4]), the microsomal CLint at 1 uM is 35 µL/min/mg.
`CC[C@H](C)[C@H]1C(=O)NCC(=O)N[C@@H](C)CC(=O)N(C)[C@H](C)C(=O)N[C@@H](Cc2ccccc2)C(=O)N(C)[C@@H](CC(C)C)C(=O)N[C@@H](COC(C)(C)C)C(=O)N[C@@H](Cc2ccccc2)C(=O)N2CCC[C@H]2C(=O)N[C@@H]([C@@H](C)O)C(=O)N[C@@H](CC(C)C)C(=O)N(C)[C@@H](C)C(=O)N1C` [DP-754] (cyclo(F[NMeL]S(tBu)FPTL[NMeA][NMeI]G[β3hA][dNMeA])): the Papp at 18 hours, 50 µM in series [1] (pH 6.5) came out at 32 ×10⁻⁶ cm/s. In series [2] (human, pH 7.4, CL NADPH(+)), this compound yielded a microsomal CLint at 1 uM of 41 µL/min/mg.

The values are drawn from patent US9409952B2, “Peptide-compound cyclization method” (Chugai Seiyaku Kabushiki Kaisha, priority 2011, dated 2016).
